From ChEMBL document CHEMBL5149979, “Emerging small-molecule inhibitors of the Bruton's tyrosine kinase (BTK): Current development” (Eur J Med Chem, 2021)
Values after ≈ are worked out from the molar mass of the structure shown.

Tests used:
[1] = target: T1, Tyrosine-protein kinase BTK (Homo sapiens, UniProt Q06187); test: Inhibition of BTK (unknown origin) using Poly(Glu4,Tyr1) as substrate in presence of ATP
[2] = Kinetic solubility of the compound; assay type: physicochemical; details: read-out: Kinetic_solubility
[3] = target: T1, Tyrosine-protein kinase BTK; test: Inhibition of BTK (unknown origin) incubated for 40 mins by radiometric assay
[4] = Antiproliferative activity against human MINO cells reduction in cell viability incubated for 72 hrs by CellTiter-Glo luminescent cell viability assay; assay type: functional, cell-based
[5] = target: T1, Tyrosine-protein kinase BTK; test: Inhibition of BTK (unknown origin) incubated for 60 mins by ADP-Glo kinase assay
U-937 [6] = test: Antiproliferative activity against human U-937 cells assessed as reduction in cell viability measured after 72 hrs by CCK-8 assay; details: U-937, 72 h
NAMALVA = test: Antiproliferative activity against human NAMALWA cells assessed as reduction in cell viability measured after 72 hrs by CCK-8 assay; assay type: functional, cell-based
U-937 [7] = test: Induction of apoptosis in human U-937 cells assessed as […] at 40 nM incubated for 48 hrs by AnnexinV-FITC/propidium iodide staining based flow cytometry analysis relative to control; assay type: functional
HL-60 = test: Antiproliferative activity against human HL-60 cells assessed as reduction in cell viability measured after 72 hrs by CCK-8 assay; details: HL-60, 72 h
Ramos [8] = test: Antiproliferative activity against human Ramos cells assessed as reduction in cell viability measured after 72 hrs by CCK-8 assay; assay type: functional, cell-based
Raji [9] = test: Antiproliferative activity against human Raji cells assessed as reduction in cell viability measured after 72 hrs by CCK-8 assay; assay type: functional, cell-based
Bcr/Abl fusion protein = Bcr/Abl fusion protein (Homo sapiens, UniProt P00519); test: Inhibition of BCR-ABL (unknown origin) using peptide GGEAIYAAPFKK as substrate; assay type: protein assay
Sequence of Bcr/Abl fusion protein (P00519 whole entry, the tested form may be a part): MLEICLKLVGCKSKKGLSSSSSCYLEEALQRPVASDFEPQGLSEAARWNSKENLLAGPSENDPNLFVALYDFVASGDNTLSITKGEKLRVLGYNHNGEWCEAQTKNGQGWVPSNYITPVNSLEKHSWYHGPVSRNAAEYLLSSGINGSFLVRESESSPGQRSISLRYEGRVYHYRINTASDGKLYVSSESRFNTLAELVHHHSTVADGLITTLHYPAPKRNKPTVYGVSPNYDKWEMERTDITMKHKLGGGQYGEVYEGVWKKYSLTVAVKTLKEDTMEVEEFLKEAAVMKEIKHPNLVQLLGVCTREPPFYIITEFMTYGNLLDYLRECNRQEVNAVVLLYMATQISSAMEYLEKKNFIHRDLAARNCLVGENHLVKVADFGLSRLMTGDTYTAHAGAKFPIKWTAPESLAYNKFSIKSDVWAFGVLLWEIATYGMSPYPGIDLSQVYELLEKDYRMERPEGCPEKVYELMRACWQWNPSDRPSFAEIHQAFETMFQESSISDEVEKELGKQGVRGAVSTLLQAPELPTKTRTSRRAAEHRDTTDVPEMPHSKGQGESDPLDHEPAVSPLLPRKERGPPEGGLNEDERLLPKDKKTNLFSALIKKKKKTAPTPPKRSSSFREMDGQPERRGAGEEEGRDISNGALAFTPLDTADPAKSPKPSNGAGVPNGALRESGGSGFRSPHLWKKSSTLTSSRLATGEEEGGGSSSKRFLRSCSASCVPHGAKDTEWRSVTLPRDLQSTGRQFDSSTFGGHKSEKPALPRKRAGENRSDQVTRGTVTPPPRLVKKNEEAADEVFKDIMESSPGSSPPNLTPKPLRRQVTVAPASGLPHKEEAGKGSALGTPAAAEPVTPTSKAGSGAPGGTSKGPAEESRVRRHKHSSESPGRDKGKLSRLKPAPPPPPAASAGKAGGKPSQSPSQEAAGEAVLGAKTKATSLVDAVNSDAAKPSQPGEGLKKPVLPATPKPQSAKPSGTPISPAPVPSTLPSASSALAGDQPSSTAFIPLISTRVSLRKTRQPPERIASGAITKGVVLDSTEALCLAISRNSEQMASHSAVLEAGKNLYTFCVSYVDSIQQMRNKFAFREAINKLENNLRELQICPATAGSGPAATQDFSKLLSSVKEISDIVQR
Sequence of Bcr/Abl fusion protein (P11274 whole entry, further chain, the tested form may be a part): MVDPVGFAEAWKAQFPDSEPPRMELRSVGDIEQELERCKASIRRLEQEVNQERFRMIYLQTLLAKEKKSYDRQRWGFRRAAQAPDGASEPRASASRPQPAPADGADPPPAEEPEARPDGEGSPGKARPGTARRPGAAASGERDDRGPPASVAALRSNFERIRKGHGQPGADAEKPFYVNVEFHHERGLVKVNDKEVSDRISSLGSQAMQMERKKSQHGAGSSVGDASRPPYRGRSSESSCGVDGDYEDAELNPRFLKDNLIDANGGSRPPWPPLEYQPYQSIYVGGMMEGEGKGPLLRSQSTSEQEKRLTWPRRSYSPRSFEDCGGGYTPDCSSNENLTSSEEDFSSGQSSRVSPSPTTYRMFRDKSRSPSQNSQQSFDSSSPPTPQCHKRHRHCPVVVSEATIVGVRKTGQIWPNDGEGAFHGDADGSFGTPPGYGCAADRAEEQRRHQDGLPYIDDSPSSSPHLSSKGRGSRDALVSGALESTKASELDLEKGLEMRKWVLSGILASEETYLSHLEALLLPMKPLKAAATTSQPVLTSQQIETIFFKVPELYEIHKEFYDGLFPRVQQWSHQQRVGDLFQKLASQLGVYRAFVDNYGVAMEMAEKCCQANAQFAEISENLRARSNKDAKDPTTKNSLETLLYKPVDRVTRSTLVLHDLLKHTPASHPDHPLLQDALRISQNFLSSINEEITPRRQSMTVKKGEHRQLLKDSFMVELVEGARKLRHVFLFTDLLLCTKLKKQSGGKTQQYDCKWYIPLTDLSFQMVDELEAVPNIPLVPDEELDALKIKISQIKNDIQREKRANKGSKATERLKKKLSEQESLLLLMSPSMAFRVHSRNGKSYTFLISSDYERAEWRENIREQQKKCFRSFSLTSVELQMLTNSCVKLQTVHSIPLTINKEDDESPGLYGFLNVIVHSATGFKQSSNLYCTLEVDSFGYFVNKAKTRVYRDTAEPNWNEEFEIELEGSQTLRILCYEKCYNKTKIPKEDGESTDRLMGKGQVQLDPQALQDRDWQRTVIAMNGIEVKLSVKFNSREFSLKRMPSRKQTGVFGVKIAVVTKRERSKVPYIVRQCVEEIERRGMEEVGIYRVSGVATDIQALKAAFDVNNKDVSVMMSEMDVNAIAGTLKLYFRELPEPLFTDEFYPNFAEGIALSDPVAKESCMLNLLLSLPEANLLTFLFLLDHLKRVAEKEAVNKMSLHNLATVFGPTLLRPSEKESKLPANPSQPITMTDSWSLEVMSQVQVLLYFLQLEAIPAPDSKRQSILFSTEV

Ramos [10] = test: Antiproliferative activity against human Ramos cells assessed as growth inhibition incubated for 72 hrs by resazurin dye based fluorescence microplate reader analysis; assay type: functional
[11] = target: T1, Tyrosine-protein kinase BTK; test: Inhibition of BTK (unknown origin) using Poly(Glu4,Tyr1) as substrate in presence of ATP by radiometric kinase assay
[12] = Oral bioavailability in rat at 30 mg/kg measured upto 8 hrs; assay type: ADME, organism-based; details: in vivo
[13] = Antiproliferative activity against human MINO cells assessed as inhibition of cell proliferation by MTT assay; assay type: functional, cell-based
L02 = test: Antiproliferative activity against human L02 cells assessed as reduction in cell viability by MTT assay; assay type: functional, cell-based
[14] = target: T1, Tyrosine-protein kinase BTK; test: Inhibition of BTK (unknown origin) incubated for 10 mins by caliper mobility shift assay
OCI-Ly10 = test: Antiproliferative activity against human OCILY10 cells assessed as inhibition of cell proliferation by MTT assay; assay type: functional, cell-based
HEK293 = test: Antiproliferative activity against human HEK293 cells assessed as reduction in cell viability by MTT assay; assay type: functional, cell-based
DOHH-2 = test: Antiproliferative activity against human DOHH-2 cells assessed as inhibition of cell proliferation by MTT assay; assay type: functional, cell-based
Rec1 = test: Antiproliferative activity against human REC1 cells assessed as inhibition of cell proliferation by MTT assay; assay type: functional, cell-based
TMD8 [15] = test: Antitumor activity against human TMD8 cells xenografted in SCID mouse assessed as tumor growth inhibition at 1.5 mg/kg, po bid administered daily 20 days by caliper analysis; assay type: functional; details: TMD8, 480 h, time 20 day, read-out: TGI
TMD8 [16] = test: Antitumor activity against human TMD8 cells xenografted in SCID mouse assessed as tumor growth inhibition at 15 mg/kg, po bid administered daily 20 days by caliper analysis; assay type: functional; details: TMD8, 480 h, time 20 day, read-out: TGI
TMD8 [17] = test: Antitumor activity against human TMD8 cells xenografted in SCID mouse assessed as tumor growth inhibition at 3 mg/kg, po bid administered daily 20 days by caliper analysis; assay type: functional; details: TMD8, 480 h, time 20 day, read-out: TGI
Raji [18] = test: Antiproliferative activity against human Raji cells assessed as reduction in cell viability incubated for 96 hrs by MTT assay; assay type: functional, cell-based
[19] = target: T1, Tyrosine-protein kinase BTK; test: Inhibition of recombinant human wild type BTK using Poly(Glu4,Tyr1) and ATP as substrate measured after 2 hrs by ADP-Glo kinase assay
[20] = Inhibition of recombinant human BTK cys481S mutant using Poly(Glu4,Tyr1) and ATP as substrate measured after 2 hrs by ADP-Glo kinase assay
TMD8 [21] = test: Antiproliferative activity against human TMD8 cells assessed as reduction in cell viability incubated for 96 hrs by MTT assay; assay type: functional, cell-based; details: TMD8, 96 h
[22] = target: Epidermal growth factor receptor (Homo sapiens, UniProt P00533); test: Inhibition EGFR (unknown origin) expressed in baculovirus expression system by ELISA
Sequence of Epidermal growth factor receptor (P00533 whole entry): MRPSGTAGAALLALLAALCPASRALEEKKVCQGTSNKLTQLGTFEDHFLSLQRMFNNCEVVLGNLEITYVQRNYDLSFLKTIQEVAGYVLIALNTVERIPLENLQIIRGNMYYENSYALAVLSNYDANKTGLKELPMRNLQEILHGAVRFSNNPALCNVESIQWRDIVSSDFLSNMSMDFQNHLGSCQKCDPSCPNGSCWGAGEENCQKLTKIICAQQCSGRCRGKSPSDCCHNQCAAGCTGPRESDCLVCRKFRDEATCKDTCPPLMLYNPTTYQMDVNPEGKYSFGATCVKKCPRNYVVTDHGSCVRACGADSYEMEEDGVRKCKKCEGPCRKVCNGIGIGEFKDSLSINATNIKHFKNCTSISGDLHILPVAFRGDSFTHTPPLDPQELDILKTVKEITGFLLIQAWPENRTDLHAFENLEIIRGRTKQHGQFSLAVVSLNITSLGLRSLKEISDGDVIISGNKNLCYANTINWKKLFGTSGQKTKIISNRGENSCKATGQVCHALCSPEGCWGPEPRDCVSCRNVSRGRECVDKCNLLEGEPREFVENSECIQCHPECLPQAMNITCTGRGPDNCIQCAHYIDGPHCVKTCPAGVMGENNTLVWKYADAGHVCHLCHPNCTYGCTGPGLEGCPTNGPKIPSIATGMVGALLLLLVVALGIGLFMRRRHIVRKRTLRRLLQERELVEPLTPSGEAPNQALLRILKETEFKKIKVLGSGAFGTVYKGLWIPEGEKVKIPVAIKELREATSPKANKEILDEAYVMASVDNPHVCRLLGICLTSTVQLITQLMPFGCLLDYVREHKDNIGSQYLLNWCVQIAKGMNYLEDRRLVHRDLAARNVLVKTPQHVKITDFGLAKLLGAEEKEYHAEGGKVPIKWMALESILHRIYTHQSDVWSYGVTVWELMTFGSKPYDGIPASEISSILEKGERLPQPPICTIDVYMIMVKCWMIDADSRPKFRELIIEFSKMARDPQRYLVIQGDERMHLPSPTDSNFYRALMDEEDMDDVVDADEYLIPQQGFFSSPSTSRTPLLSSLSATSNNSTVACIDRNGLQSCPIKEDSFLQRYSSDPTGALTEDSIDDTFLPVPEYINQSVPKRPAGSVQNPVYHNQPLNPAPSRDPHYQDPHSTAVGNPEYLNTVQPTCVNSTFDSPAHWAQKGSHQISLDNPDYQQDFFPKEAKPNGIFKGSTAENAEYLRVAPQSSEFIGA

TMD8 [23] = test: Antiproliferative activity against human TMD8 cells assessed as reduction in cell viability incubated for 72 hrs by CCK-8 assay; assay type: functional, cell-based; details: TMD8, 72 h
Z-138 = test: Antiproliferative activity against human Z138 cells reduction in cell viability incubated for 72 hrs by CellTiter-Glo luminescent cell viability assay; details: Z-138, 72 h

T1 sequence (Q06187 whole entry): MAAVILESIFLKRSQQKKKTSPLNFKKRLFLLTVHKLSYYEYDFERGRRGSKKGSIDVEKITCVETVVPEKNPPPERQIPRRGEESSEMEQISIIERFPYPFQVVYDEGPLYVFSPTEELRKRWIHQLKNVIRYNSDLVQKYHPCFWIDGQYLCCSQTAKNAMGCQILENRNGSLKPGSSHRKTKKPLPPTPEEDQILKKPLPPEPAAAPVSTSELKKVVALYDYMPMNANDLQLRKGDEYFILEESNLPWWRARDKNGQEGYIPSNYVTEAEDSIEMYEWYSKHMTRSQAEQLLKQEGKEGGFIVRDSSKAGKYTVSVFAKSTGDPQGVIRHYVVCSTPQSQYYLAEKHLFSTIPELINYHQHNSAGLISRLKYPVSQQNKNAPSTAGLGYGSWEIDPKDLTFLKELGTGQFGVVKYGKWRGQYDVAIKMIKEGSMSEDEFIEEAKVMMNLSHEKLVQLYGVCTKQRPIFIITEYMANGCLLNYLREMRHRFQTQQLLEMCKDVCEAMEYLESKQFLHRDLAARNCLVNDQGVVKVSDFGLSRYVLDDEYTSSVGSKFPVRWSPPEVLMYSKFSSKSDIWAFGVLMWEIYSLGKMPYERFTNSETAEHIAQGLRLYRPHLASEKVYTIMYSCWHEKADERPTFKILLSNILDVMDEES

Compound `C=CS(=O)(=O)N1CCC(Cn2cc(-c3ccc4c(c3)OCO4)c3c(N)ncnc32)CC1` has an IC50 [1] of 1.32 nM and a solubility kinetic [2] of 100 µg/mL (≈ 226 µM).
In the case of `Nc1ccc(Cn2nc(-c3ccc(Oc4ccccc4)cc3)c3c(N)ncnc32)cc1`, the IC50 [3] is reported as 82 nM and the IC50 [4] is reported as 13900 nM.
With `C=CC(=O)Nc1cccc(Nc2nc(Nc3ccc(Cn4cc(C)nc4CC)cc3)ncc2Cl)c1` the IC50 [5] was 17.7 nM, the IC50 (U-937 [6]) was 38 nM and the IC50 (NAMALVA) was under 10800 nM. For the same compound, the Activity (U-937 [7]) was 55%, the IC50 (HL-60) was 109 nM and the IC50 (Ramos [8]) was under 10800 nM. The IC50 (Raji [9]) was under 10800 nM.
`CN1CCN(c2ccc(Nc3nc(Nc4ccc(F)c(F)c4)c4ncn(CC5CC5)c4n3)cc2F)CC1` gave an IC50 (Bcr/Abl fusion protein) of 580 nM, a GI50 (Ramos [10]) of 4100 nM and an IC50 [11] of 2650 nM.
`C=C(Cl)C(=O)N1CCC[C@H](n2nc(-c3ccc(Oc4ccccc4)cc3)c3c(N)ncnc32)C1` showed a bioavailability [12] of 6%, an IC50 [13] of 560 nM and an IC50 (L02) of 15900 nM. The IC50 [14] was 2.5 nM, the IC50 (OCI-Ly10) was 160 nM and the IC50 (HEK293) was 5460 nM. It also gave an IC50 (DOHH-2) of 220 nM and an IC50 (Rec1) of 10 nM.
Compound `Nc1cccc(Cn2nc(-c3ccc(Oc4ccccc4)cc3)c3c(N)ncnc32)c1` has an IC50 [3] of 75 nM and an IC50 [4] of 9500 nM.
`C=CC(=O)Nc1cccc(Nc2nc(Nc3ccc(Cn4cc(C)nc4CC)cc3)ncc2F)c1` gave an IC50 [5] of 42.4 nM, an IC50 (U-937 [6]) of 106 nM and an IC50 (NAMALVA) of under 10800 nM. It also gave an IC50 (HL-60) of 116 nM, an IC50 (Ramos [8]) of under 10800 nM and an IC50 (Raji [9]) of under 10800 nM.
In the case of `CN1CCN(c2ccc(Nc3nc(Nc4ccc(F)c(F)c4)c4ncn(CC5CC5)c4n3)cc2)CC1`, the GI50 (Ramos [10]) is reported as 4630 nM and the IC50 [11] is reported as 580 nM.
With `C=CC(=O)N1CC2CC(n3nc(-c4ccc(C(=O)Nc5ccccn5)cc4)c4c(N)ncnc43)CC2C1` (stereo not given) the inhibition in vivo at 1.5 mg/kg (TMD8 [15]) was 10%, the inhibition in vivo at 15 mg/kg (TMD8 [16]) was 88% and the inhibition in vivo at 3 mg/kg (TMD8 [17]) was 50%. It also gave an IC50 (Raji [18]) of 13200 nM, an IC50 [19] of 1 nM and an IC50 [20] of 14 nM. It also gave an IC50 (TMD8 [21]) of 0.78 nM.
Work on `C=CC(=O)Nc1cccc(N2C(=O)OC(C)c3cnc(Nc4ccc(N5CCN(C)CC5)cc4OC)nc32)c1` (stereo not given) yielded an IC50 [1] of 7 nM, an IC50 [22] of 47.4 nM and an IC50 (TMD8 [23]) of 28 nM.
Work on `Nc1ncnc2c1c(-c1ccc(Oc3ccccc3)cc1)nn2Cc1cccc(NC(=O)CCl)c1` yielded an IC50 [3] of 27 nM and an IC50 [4] of 900 nM.
`C=CC(=O)Nc1cccc(N2C(=O)OCc3cnc(Nc4ccc(N5CCN(C)CC5)cc4OC)nc32)c1` gave an IC50 [1] of 4.7 nM and an IC50 [22] of 28.8 nM.
In the case of `Nc1ncnc2c1c(-c1ccc(Oc3ccccc3)nc1)nn2C1CCCN(C(=O)CCl)C1` (stereo not given), the IC50 [3] is reported as 36 nM, the IC50 [4] is reported as 400 nM and the IC50 (Z-138) is reported as 400 nM.
`C=CC(=O)N1CCCC(Cn2cc(-c3ccc(Oc4ccccc4)cc3)c3c(N)ncnc32)C1` (single isomer, unassigned) gave an IC50 [1] of 1.71 nM.
